Here are results for 1 compound from patent publication US7157494B2, “Dimeric compounds and their use as anti-viral agents” (priority 2001, dated 2007).

The subject of one series is Influenza B/Harbin/7/95. The class given is cell-based. The following applies: concentration that inhibited CPE by 50%; MDCK cells, up to 72 hours, MTT.
The next series has as its system Influenza A/Sydney/5/97. The class given is cell-based. The conditions noted are these: concentration that inhibited CPE by 50%; MDCK cells, up to 72 hours, MTT.
Another series has as its system recent clinical isolates. The conditions noted are these: in vitro assays involving recent clinical isolates, Woods et al 1993; cited from earlier work.
Series [1] relates to A/Sydney/5/97 BVLV015 (H3N2). The series can be described thus: Plaque reduction assay (PRA) in MDCK cells. The class given is cell-based, influenza A H3N2. The conditions noted are these: Influenza A virus, MDCK; reduces plaque numbers by 50%; A/Sydney/5/97 (H3N2); read-out: EC50 PRA A/Syd. Here is the method: (§1) Madin Darby Canine Kidney (MDCK) cells are seeded into six well tissue culture plates and grown to confluency via standard methods. Influenza viruses are diluted in a minimal volume of phosphate buffered saline supplemented with 0.2% bovine serum albumin to yield an estimated titre of 50–100 plaque forming units (pfu) per well. After adsorption to the MDCK cells for one hour at 37° C. in a 5% CO2 atmosphere the viral inocula is aspirated and replaced with viral growth media (minimal Eagle's media supplemented with BSA, trypsin and insulin/transferrin/selenium at optimal concentrations) containing sufficient agar or agarose (generally 1–2%) to cause the media to gel at room temperature and at 37° C. in a 5% CO2 atmosphere until plaques develop (generally 2–4 days). Plaques can be visualised with a suitable stain (e.g. 0.4% crystal violet in formal saline) before counting.

Series [2] relates to A/Panama/2007/99 BVLV008 (H3N2). Kind of series: Plaque reduction assay (PRA) in MDCK cells. The format is cell-based, influenza A H3N2. The conditions noted are these: reduces plaque numbers by 50%, A/Panama/2007/99 (H3N2). Here is the method:
as §1

Series [3] relates to A/Victoria/3/75 BVLV017 (H3N2). Kind of series: Plaque reduction assay (PRA) in MDCK cells. The class given is cell-based, influenza A H3N2. The conditions noted are these: Influenza A virus, MDCK; reduces plaque numbers by 50%; A/Victoria/3/75 (H3N2); read-out: EC50 PRA A/Vic. Here is the method: as §1
Series [4] relates to A/Bayern/7/95 BVL006 (H1N1). Kind of series: Plaque reduction assay (PRA) in MDCK cells. The following applies: Influenza A virus, MDCK; reduces plaque numbers by 50%; A/Bayern/7/95 (H1N1); read-out: EC50 PRA A/Bay. The class given is cell-based, influenza A H1N1. Here is the method:
as §1

Another series concerns A/WSN/33 BVLV09 (H1N1). Kind of series: Plaque reduction assay (PRA) in MDCK cells. The class given is cell-based, influenza A H1N1. The following applies: reduces plaque numbers by 50%, A/WSN/33 (H1N1). On the procedure:
as §1

Series [5] deals with A/New Caledonia/20/99 BVLV008 (H1N1). The series can be described thus: Plaque reduction assay (PRA) in MDCK cells. The conditions noted are these: reduces plaque numbers by 50%, A/New Caledonia/20/99 (H1N1). The class given is cell-based, influenza A H1N1. On the procedure: as §1
A further series relates to B/Hong Kong/5/72 BVLV012. Kind of series: Plaque reduction assay (PRA) in MDCK cells. The following applies: Influenza B virus, MDCK; reduces plaque numbers by 50%; B/Hong Kong/5/72; read-out: EC50 PRA B/HongK. The class given is cell-based, influenza B. On the procedure:
as §1

Series [6] in a line: Rat lung retention assay (intra-tracheal dosing, compound level in lung tissue). The format is in vivo. The following applies: rat, in vivo, 0.1 mg/kg. On the procedure: Rodents are anaesthetised and dosed with compound of interest by the intra-tracheal route at a dose volume of 0.8 ml/kg. The rodent is then held in the vertical position until full recovery is achieved. […] Any analytical method suitable for detection of this type of compound may be used. The time at which levels of compound fall below the sensitivity of the analytical techniques identified will determine the residency time of the compound in lung tissue.
Please note that all experiments included a co-dosed internal standard, namely compound 3 of International Patent Publication No. WO 02/20514, to permit comparison. The data are expressed as a ratio with respect to this compound, the structure of which is shown below.

≈ marks a conversion by molar mass, not a printed value.

Consider `CC(=O)N[C@@H]1C(N=C(N)N)C=C(C(=O)O)O[C@H]1[C@H](O)[C@H](O)CO` (single isomer, unassigned) [Compound A, 4-guanidino-2-deoxy-2,3-dehydro-N-acetylneuraminic acid, reference compound], for which the “ID50 B/Harbin/7/95” value with Influenza B/Harbin/7/95 was found to be 13 ± 11 ng/mL (≈ 0.0391 µM). In addition, in the series on Influenza A/Sydney/5/97, the “ID50 A/Sydney/5/97” value was 23 ± 24 ng/mL (≈ 0.0692 µM). Moreover, the EC50 in the series on recent clinical isolates was 20 to 160 nM; in series [1], 2.4 ng/mL (≈ 0.00722 µM); in [2] (Influenza A virus, H3N2, MDCK, read-out: EC50 PRA A/Pan) it was 2.7 ng/mL (≈ 0.00812 µM); in series [3] it was 5.5 ng/mL (≈ 0.0166 µM); in series [4], 35 ng/mL (≈ 0.105 µM); in the series with A/WSN/33 BVLV09 (H1N1) (Influenza A virus, MDCK) it was 56 ng/mL (≈ 0.169 µM). Further, the EC50 amounted to 0.27 ng/mL (≈ 0.000812 µM) in series [5] (Influenza A virus, H1N1, MDCK) and 21 ng/mL (≈ 0.0632 µM) in the series with B/Hong Kong/5/72 BVLV012. Moreover, in series [2], the “EC50 PRA A/Pan” value came out at 3 ng/mL (≈ 0.00903 µM). Besides, the “EC50 PRA A/WSN” value in the series with A/WSN/33 BVLV09 (H1N1) was over 100 ng/mL. Also, the “EC50 PRA A/New” value in [5] came out at 0.23 ng/mL (≈ 0.000692 µM). Also, the “Ratio Mean [lung] [cmpd]/PCT AU01/01128 compound 3” value was 0.26 in series [6] (48 h) and 0.08 in series [6] (168 h). For the same compound, the results for the concentration at 48 h in series [6] (Mean [cmpd] ng/g) and in series [6] ([cmpd] ng/g) were 352 ng/g and 421 ng/g, respectively. This compound also gave a concentration at 168 h in series [6] (Mean [cmpd] ng/g) of 61 ng/g.
